# Results published in US20150105252A1, “SUBSTITUTED PYRAZOLES AS HERBICIDES” (E I DU PONT DE NEMOURS AND COMPANY, priority 2013, published 2015).
# Key:
# barnyardgrass [1] = test: Test A preemergence; format: in vivo, Echinochloa crus-galli; settings: preemergence; for Barnyardgrass plant response rating (0 to 100 scale, 0 is no effect, 100 is complete control): 125 g ai/ha, visual injury approx. 10 days after treatment; for Barnyardgrass plant response rating: 500 g ai/ha, visual injury after approx. 10 days, 0 to 100 scale (0 no effect, 100 complete control)
# Summary of the method: (§1)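 Ratings express plant response from 0 (no effect) to 100 (complete control), judged visually against untreated controls after approximately 10 days in the greenhouse. Preemergence applications were made as directed soil sprays onto seeded loam–sand mix, and postemergence applications onto 2–10 cm plants at one- to two-leaf stage.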
# blackgrass = test: Test A postemergence; format: in vivo, Alopecurus myosuroides
# Summary of the method: as §1
# common ragweed [2] = test: Test A postemergence; format: in vivo, Ambrosia elation
# Description: (§2) Seeds of plant species selected from barnyardgrass (Echinochloa crus-galli), kochia (Kochia scoparia), common ragweed (Ambrosia elation), Italian ryegrass (Lolium multiflorum), crabgrass, large (large crabgrass, Digitaria sanguinalis), foxtail, giant (giant foxtail, Setaria faberii), morningglory (Ipomoea spp.), pigweed (redroot pigweed, Amaranthus retroflexus), velvetleaf (Abutilon theophrasti), wheat (Triticum aestivum), and corn (Zea mays) were planted into a blend of loam soil and sand and treated preemergence with a directed soil spray using test chemicals formulated in a non-phytotoxic solvent mixture which included a surfactant.
# (§3) At the same time, plants selected from these crop and weed species and also blackgrass (Alopecurus myosuroides), and galium (catchweed bedstraw, Galium aparine) were planted in pots containing the same blend of loam soil and sand and treated with postemergence applications of test chemicals formulated in the same manner. Plants ranged in height from 2 to 10 cm and were in the one- to two-leaf stage for the postemergence treatment. Treated plants and untreated controls were maintained in a greenhouse for approximately 10 days, after which time all treated plants were compared to untreated controls and visually evaluated for injury. Plant response ratings, summarized in Table A, are based on a 0 to 100 scale where 0 is no effect and 100 is complete control. A dash (-) response means no test result.
# barnyardgrass [3] = test: Test A postemergence; format: in vivo, Echinochloa crus-galli
# Summary of the method: as §1
# sedge, umbrella = test: Test B flood; format: in vivo, Cyperus difformis; settings: 250 g ai/ha, visual rating on 0 to 100 scale (0 no effect, 100 complete control), 13 to 15 days
# Summary of the method: (§4)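 Response scored visually, 0–100 relative to controls, 13–15 days after the compound was applied into paddy water; plants were at the 2-leaf stage in pots kept flooded to 3 cm.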
# common ragweed [4] = test: Test A preemergence; format: in vivo, Ambrosia elation; settings: for Common Ragweed plant response rating (0 to 100 scale): 125 g ai/ha, visual injury approx. 10 days after treatment; for Common Ragweed plant response rating: 500 g ai/ha, visual injury after approx. 10 days, 0 to 100 scale (0 no effect, 100 complete control)
# Description: as §2, §3
# corn = test: Test A postemergence; format: in vivo, Zea mays
# Summary of the method: as §1
# Italian ryegrass [5] = test: Test A postemergence; format: in vivo, Lolium multiflorum; settings: Postemergence
# Summary of the method: as §1
# pigweed [6] = test: Test A postemergence; format: in vivo, Amaranthus retroflexus; settings: Postemergence
# Summary of the method: as §1
# galium = test: Test A postemergence; format: in vivo, Galium aparine; settings: Postemergence
# Summary of the method: as §1
# foxtail, giant [7] = test: Test A postemergence; format: in vivo, Setaria faberii
# Summary of the method: as §1
# kochia [8] = test: Test A preemergence; format: in vivo, Kochia scoparia; settings: 125 g ai/ha, visual injury approx. 10 days after treatment
# Summary of the method: as §1
# barnyardgrass [9] = test: Test B flood; format: in vivo, Echinochloa crus-galli; settings: 250 g ai/ha, visual rating on 0 to 100 scale (0 no effect, 100 complete control), 13 to 15 days
# Summary of the method: as §4
# Italian ryegrass [10] = test: Test A preemergence; format: in vivo, Lolium multiflorum; settings: for Italian Ryegrass plant response rating (0 to 100 scale): 125 g ai/ha, visual injury approx. 10 days after treatment; for Italian Ryegrass plant response rating: 500 g ai/ha, visual injury after approx. 10 days, 0 to 100 scale (0 no effect, 100 complete control)
# Summary of the method: as §1
# foxtail, giant [11] = test: Test A preemergence; format: in vivo, Setaria faberii; settings: preemergence; for Foxtail, Giant plant response rating (0 to 100 scale): 125 g ai/ha, visual injury approx. 10 days after treatment; for Foxtail, Giant plant response rating: 500 g ai/ha, visual injury after approx. 10 days, 0 to 100 scale (0 no effect, 100 complete control)
# Summary of the method: as §1
# wheat = test: Test A postemergence; format: in vivo, Triticum aestivum; settings: Postemergence
# Summary of the method: as §1
# rice = test: Test B flood; format: in vivo, Oryza sativa; settings: 250 g ai/ha, visual rating on 0 to 100 scale (0 no effect, 100 complete control), 13 to 15 days
# Summary of the method: as §4
# ducksalad = test: Test B flood; format: in vivo, Heteranthera limosa; settings: 250 g ai/ha, visual rating on 0 to 100 scale (0 no effect, 100 complete control), 13 to 15 days
# Summary of the method: as §4
# kochia [12] = test: Test A postemergence; format: in vivo, Kochia scoparia; settings: Postemergence
# Description: as §2, §3
# pigweed [13] = test: Test A preemergence; format: in vivo, Amaranthus retroflexus; settings: preemergence, 125 g ai/ha, visual injury approx. 10 days after treatment
# Summary of the method: as §1
# [14] = Postemergence, 500 g ai/ha, 0 to 100 scale (0 no effect, 100 complete control)
# [15] = postemergence, 125 g ai/ha, about 10 days, visual rating on 0 to 100 scale (0 no effect, 100 complete control)
# [16] = 125 g ai/ha, 0 to 100 scale, 0 no effect, 100 complete control
# [17] = 500 g ai/ha, 0 to 100 scale (0 no effect, 100 complete control)
# [18] = Postemergence, 125 g ai/ha, 0 to 100 scale, 0 no effect, 100 complete control
SMILES,"Barnyardgrass plant response rating (0 to 100 scale, 0 is no effect, 100 is complete control) (barnyardgrass [1])",Barnyardgrass plant response rating (barnyardgrass [1]),Blackgrass plant response rating (blackgrass; [14]),Common Ragweed plant response rating (common ragweed [2]; [14]),Barnyardgrass plant response rating (barnyardgrass [3]; [14]),"Plant response rating, Sedge, Umbrella (sedge, umbrella)",Common Ragweed plant response rating (0 to 100 scale) (common ragweed [4]),Common Ragweed plant response rating (common ragweed [4]),Corn plant response rating (corn; [14]),Italian Ryegrass plant response rating (Italian ryegrass [5]; [16]),Italian Ryegrass plant response rating (Italian ryegrass [5]; [17]),Pigweed plant response rating (pigweed [6]; [16]),Pigweed plant response rating (pigweed [6]; [17]),Galium plant response rating (galium; [16]),Galium plant response rating (galium; [17]),"Foxtail, Giant plant response rating (foxtail, giant [7]; [14])",Kochia plant response rating (0 to 100 scale) (kochia [8]),"Plant response rating, Barnyardgrass (barnyardgrass [9])",Italian Ryegrass plant response rating (0 to 100 scale) (Italian ryegrass [10]),Italian Ryegrass plant response rating (Italian ryegrass [10]),further results
CCCNC(=O)c1cc(CC)n(Cc2cc(C(F)(F)F)nn2C(C)C)n1 [Compound 209],0,0,0,0,0,0,0,0,0,0,0,0,0,0,0,0,0,0,0,0,"Blackgrass plant response rating (blackgrass; [15]): 0; Common Ragweed plant response rating (common ragweed [2]; [15]): 0; Barnyardgrass plant response rating (barnyardgrass [3]; [15]): 0; Corn plant response rating (corn; [15]): 0; Foxtail, Giant plant response rating (foxtail, giant [7]; [15]): 0; Foxtail, Giant plant response rating (0 to 100 scale) (foxtail, giant [11]): 0; Foxtail, Giant plant response rating (foxtail, giant [11]): 0; Wheat plant response rating (wheat; [16]): 0; Wheat plant response rating (wheat; [17]): 0; Plant response rating, Rice (rice): 0; Plant response rating, Ducksalad (ducksalad): 0; Kochia plant response rating (kochia [12]; [16]): 0; Kochia plant response rating (kochia [12]; [17]): 0; Pigweed plant response rating (0 to 100 scale) (pigweed [13]): 0"
CCc1cc(C(=O)NC(C)C)nn1Cc1cc(C(F)(F)F)nn1C(C)C [Compound 210],0,0,0,0,0,0,0,0,0,0,0,0,20,0,20,0,0,0,0,0,"Blackgrass plant response rating (blackgrass; [18]): 0; Common Ragweed plant response rating (common ragweed [2]; [18]): 0; Barnyardgrass plant response rating (barnyardgrass [3]; [18]): 0; Corn plant response rating (corn; [18]): 0; Foxtail, Giant plant response rating (foxtail, giant [7]; [18]): 0; Foxtail, Giant plant response rating (0 to 100 scale) (foxtail, giant [11]): 0; Foxtail, Giant plant response rating (foxtail, giant [11]): 0; Wheat plant response rating (wheat; [16]): 0; Wheat plant response rating (wheat; [17]): 0; Plant response rating, Rice (rice): 0; Plant response rating, Ducksalad (ducksalad): 0; Kochia plant response rating (kochia [12]; [16]): 10; Kochia plant response rating (kochia [12]; [17]): 20; Pigweed plant response rating (0 to 100 scale) (pigweed [13]): 0"
